These results are taken from patent US9522139B2, “Fructose 1, 6-biphosphatases as new targets for diagnosing and treating breast cancer brain metastasis” (The University of Houston System, priority 2011, dated 2016).

Assay [1] has as its system MDA-MB-231Br3 cells. Briefly: Cell survival assay (trypan blue uptake) in glucose-free medium. The assay is classed as cell-based.
Protocol: By way of non-limiting example, to test the role of BCAAs in the survival of brain metastatic breast cancer cells, changes in the concentrations of BCAAs over time can be measured in MDA-MB-231 and MDA-MB-231Br3 cells when cultured in a glucose-free medium. […] To measure the ability of these two types of cells to oxidize BCAAs, ^14C-Leucine can be added to the culture media and the resulting ^14CO2 measured after 8 hours of incubation. […] To investigate the mechanism by which brain metastatic cells gain such higher activity of BCAA oxidation, the levels of the rate limiting enzymes of BCAA oxidation, branched chain ketoacids dehydrogenase E1 subunit (BCKDH-E1), the inactivated form of BCKDH-E1, pSer293-BCDKH-E1 (phosphorylated at serine 293 of the E1 subunit), the BCKDH inactivating kinase, and the branched chain ketoacids dehydrogenase kinase (BDK) can be determined in both brain metastatic cells and parental cells. […] Also, to test the pro-survival role of BCAAs in MDA-MB-231Br3 cells, BCAAs can be removed from the glucose-free medium containing glutamine. […] For these tests, trypanblue uptake can used to identify dead cells, and triplicates of samples can be used in each group.
Cells were seeded in 6-well plates in full MEM medium containing 5% dialyzed FBS and supplemented with 100 IU/ml penicillin and 100 μg/ml streptomycin (Invitrogen, CA, USA) and 292 ug/ml L-Glutamine (Invitrogen, CA, USA). Medium were replaced with modified MEM after 12 hours. Modified MEM contains basic formula of 5% dialyzed FBS and 100 IU/ml penicillin and 100 μg/ml streptomycin, other supplements like glutamine, glucose, etc. were added in the basic formula according to different needs of experimental groups. Both cell culture medium and trysinized cells were collected after 48 hours and stained with trypan blue. Viability counting was counted by Countess® Automated Cell Counter (Invitrogen, CA, USA).
The test system of assay [2] is MDA-MB-231Br3 cells. Nature of the assay: Resistance to chemotherapeutic reagents, brain metastatic vs parental cells (FIG. 1A). Particulars: MDA-MB-231Br3 vs parental MDA-MB-231, triplicates. The assay is classed as cell-based.

In the case of `O=C(O[C@@H]1Cc2c(O)cc(O)cc2O[C@@H]1c1cc(O)c(O)c(O)c1)c1cc(O)c(O)c(O)c1` [EGCG, epigallocatechin gallate], the “cell death upon inhibition of GLUD” value in the assay with MDA-MB-231Br3 cells [1] (MDA-MB-231Br3 cells cultured in glucose-free medium, trend reverted upon addition of α-KG, FIG. 2D) is “dose dependent cell death”. Moreover, in the assay with MDA-MB-231Br3 cells [1] (MDA-MB-231Br3 cells, glucose-free medium, 24 hour treatment, FIG. 3G), the “effect of incremental removal of BCAAs on sensitivity to GLUD inhibition” value was “significantly sensitizes”. In addition, in the assay with MDA-MB-231Br3 cells [1] (in the absence of glucose, FIG. 2D), the “sensitivity to GLUD inhibition, brain metastatic cells vs parental MDA-MB-231 cells” value was “more sensitive”.
With `CC(=O)O[C@H]1C(=O)[C@@]2(C)[C@H]([C@H](OC(=O)c3ccccc3)[C@]3(O)C[C@H](OC(=O)[C@H](O)[C@@H](NC(=O)c4ccccc4)c4ccccc4)C(C)=C1C3(C)C)[C@]1(OC(C)=O)CO[C@@H]1C[C@@H]2O` [Taxol], in the assay on MDA-MB-231Br3 cells [2], the “resistance of MDA-MB-231Br3 cells to chemotherapeutic reagent relative to parental cells” value is “more resistance”.
Same read-out and setting: under `COc1cccc2c1C(=O)c1c(O)c3c(c(O)c1C2=O)C[C@@](O)(C(=O)CO)C[C@@H]3O[C@H]1C[C@H](N)[C@H](O)[C@H](C)O1` [adriamycin] stands “more resistance”.
